Here are results for 32 molecules from US10278957B2, “Opioid agonist peptides and uses thereof” (Protagonist Therapeutics, Inc., priority 2017, dated 2019).

The target of this test is T1, δ-opioid receptor (DOR) (Homo sapiens, UniProt P41143).
T1 construct: host or cells: cAMP Hunter CHO-K1 OPRD1 Gαi cell line
The test is described as follows: DOR agonist cAMP assay (HitHunter cAMP, forskolin-stimulated). The format is cell-based. As to the method: The HitHunter® cAMP chemiluminescent assay kit (DiscoveRx, Cat# 90-0075 SM25) was used to detect cAMP production in cAMP Hunter™ Gαi cell lines over expressing either Human-ORPM1 (Discoverx, Catalog# 95-0107C2) or Human-ORPD1 (DiscoveRx, Catalog# 95-0108C2). Opioid agonist binding to the Gαi receptors inhibits the intracellular cAMP accumulation induced by forskolin, which activates adenylate cyclase and increases intracellular levels of cAMP.
Cells were cultured in media consisting of Ham's F-12 Nutrient Mix (Life Technologies, Catalog#31765035), 10% FBS (Life Technologies, Catalog# 16140-071), 4 mM GlutaMAX (Life Technologies, Catalog#35050-061), […] (Life Technologies), 100 ug/ml of Penn-Strep (Life Technologies) and 0.5 mg/ml Geneticin (Life Technologies, Catalog# 10131-027). The cultures were maintained at 37° C. under 5% CO2.
In preparation for cAMP assay, the cells were seeded at a density of 300,000 cells/ml in 100 ul of media/well in 96-well microplate. Wells that were designated for cAMP standards were left empty.
Opioid agonist serial dilutions were prepared in separate dilution plate (11-point series of 3× (3-fold) dilution) in Cell Assay buffer, including 3× forskolin for Gαi target. For Hunter CHO-K1 OPRM1 or CHO-K1 OPRD1 Gαi Cell Lines, the final forskolin concentration was 20 uM.
15 ul of each 3× opioid agonist serial dilution was added in the presence of forskolin in duplicate to the designated wells. The final concentration of each dilution was at 3× of the final screening concentration. The assay plate was incubated for 30 min, at 37° C. under 5% CO2.
Cellular cAMP concentrations were measured using the HitHunter cAMP Assay kit following the manufacturer's protocol. HitHunter cAMP assay is a gain-of-signal competitive immunoassay based on Enzyme Fragment Complementation (EFC) technology. The kit uses β-galactosidase (β-gal) enzyme split into Enzyme Donor (ED) and Enzyme Acceptor (EA). The cellular cAMP and ED-labelled cAMP compete for anti-cAMP antibody. […] When cellular cAMP level is high, it competes for the anti-cAMP antibody, thereby releasing ED-cAMP to complement with EA to produce a luminescent signal. The amount of signal is directly proportional to the amount of cAMP in cells and can be quantified using cAMP standards. The assay plates were read using a PerkinElmer Envision instrument to detect the chemiluminescence signal in each well (luminescence reader at 0.1 to 1 second/well). Data analysis was performed using Graphpad Prism 7.EC50 was calculated by nonlinear regression, using the four-parameter hill equation.

Square brackets hold non-standard residues; d marks the D form. Peptide text beside a SMILES is read from it. Phe(3,4-(OMe)2) = COc1ccc(C[C@H](N)C(=O)O)cc1OC; Phe(3,4-Cl2) = N[C@@H](Cc1ccc(Cl)c(Cl)c1)C(=O)O; Phe(4-tBu) = CC(C)(C)c1ccc(C[C@H](N)C(=O)O)cc1; Bip = N[C@@H](Cc1ccc(-c2ccccc2)cc1)C(=O)O; Dip = N[C@H](C(=O)O)C(c1ccccc1)c1ccccc1; Phe(4-F) = N[C@@H](Cc1ccc(F)cc1)C(=O)O; Dmt = Cc1cc(O)cc(C)c1C[C@H](N)C(=O)O; dNMeF = CN[C@H](Cc1ccccc1)C(=O)O; hPhe = N[C@@H](CCc1ccccc1)C(=O)O; αMeF = C[C@](N)(Cc1ccccc1)C(=O)O; Tic = O=C(O)[C@@H]1Cc2ccccc2CN1; β3hF = N[C@H](CC(=O)O)Cc1ccccc1; N(octyl)Gly = CCCCCCCCNCC(=O)O; Nle = CCCC[C@H](N)C(=O)O; Sar = CNCC(=O)O

T1 sequence (P41143 whole entry): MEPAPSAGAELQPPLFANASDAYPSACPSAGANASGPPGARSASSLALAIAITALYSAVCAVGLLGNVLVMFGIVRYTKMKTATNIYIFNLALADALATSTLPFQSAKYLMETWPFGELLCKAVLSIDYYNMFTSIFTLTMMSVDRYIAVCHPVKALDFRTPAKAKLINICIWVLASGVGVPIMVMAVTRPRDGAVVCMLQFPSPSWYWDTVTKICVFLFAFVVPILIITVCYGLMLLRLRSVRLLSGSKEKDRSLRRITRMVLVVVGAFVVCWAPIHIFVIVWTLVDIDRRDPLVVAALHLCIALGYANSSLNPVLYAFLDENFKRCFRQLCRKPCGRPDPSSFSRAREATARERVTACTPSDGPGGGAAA

In turn, `Cc1cc(O)cc(C)c1C[C@H](N)C(=O)N[C@H](CCCNC(=N)N)C(=O)N[C@@H](Cc1ccccc1)C(=O)N(C)[C@H](Cc1ccccc1)C(N)=O` [compound 14] (H-[Dmt][dR]F[dNMeF]-NH2) showed an EC50 of 10 to 50 nM.
As for `Cc1cc(O)cc(C)c1C[C@H](N)C(=O)N[C@H](CCCNC(=N)N)C(=O)N[C@@H](Cc1ccccc1)C(=O)N[C@@](C)(Cc1ccccc1)C(N)=O` [compound 15] (H-[Dmt][dR]F[αMeF]-NH2), the figure is 1 to 10 nM.
Next, `Cc1cc(O)cc(C)c1C[C@H](N)C(=O)N[C@H](CCCNC(=N)N)C(=O)N[C@@H](Cc1ccccc1)C(=O)N[C@@H](Cc1ccc(F)cc1)C(N)=O` [compound 16] (H-[Dmt][dR]F[Phe(4-F)]-NH2): 10 to 50 nM.
Next, `COc1ccc(C[C@H](NC(=O)[C@H](Cc2ccccc2)NC(=O)[C@@H](CCCNC(=N)N)NC(=O)[C@@H](N)Cc2c(C)cc(O)cc2C)C(N)=O)cc1OC` [compound 17] (H-[Dmt][dR]F[Phe(3,4-(OMe)2)]-NH2): 1 to 10 nM.
Take `Cc1cc(O)cc(C)c1C[C@H](N)C(=O)N[C@H](CCCNC(=N)N)C(=O)N[C@@H](Cc1ccccc1)C(=O)N[C@@H](CCc1ccccc1)C(N)=O` [compound 18] (H-[Dmt][dR]F[hPhe]-NH2): the concentration giving a half-maximal response (EC50) fell in the range of 1 to 10 nM.
For the molecule `Cc1cc(O)cc(C)c1C[C@H](N)C(=O)N[C@H](CCCNC(=N)N)C(=O)N1Cc2ccccc2C[C@H]1C(=O)N(C)CC(N)=O` [compound 21] (H-[Dmt][dR][Tic][Sar]-NH2), the EC50 is greater than 200 nM.
As for `Cc1cc(O)cc(C)c1C[C@H](N)C(=O)N[C@H](CCCNC(=N)N)C(=O)N[C@@H](Cc1ccc(Cl)c(Cl)c1)C(=O)N(C)CC(N)=O` [compound 22] (H-[Dmt][dR][Phe(3,4-Cl2)][Sar]-NH2), the figure is 10 to 50 nM; as for `Cc1cc(O)cc(C)c1C[C@H](N)C(=O)N[C@H](CCCNC(=N)N)C(=O)N[C@@H](Cc1ccc(-c2ccccc2)cc1)C(=O)N(C)CC(N)=O` [compound 23] (H-[Dmt][dR][Bip][Sar]-NH2), less than 1 nM.
As for `Cc1cc(O)cc(C)c1C[C@H](N)C(=O)N[C@H](CCCNC(=N)N)C(=O)N[C@@H](Cc1ccc(C(C)(C)C)cc1)C(=O)N(C)CC(N)=O` [compound 24] (H-[Dmt][dR][Phe(4-tBu)][Sar]-NH2), the figure is greater than 200 nM.
Next, `COc1ccc(C[C@H](NC(=O)[C@@H](CCCNC(=N)N)NC(=O)[C@@H](N)Cc2c(C)cc(O)cc2C)C(=O)N(C)CC(N)=O)cc1OC` [compound 25] (H-[Dmt][dR][Phe(3,4-(OMe)2)][Sar]-NH2): greater than 200 nM.
`Cc1cc(O)cc(C)c1C[C@H](N)C(=O)N[C@H](CCCNC(=N)N)C(=O)N[C@H](C(=O)N(C)CC(N)=O)C(c1ccccc1)c1ccccc1` [compound 26] (H-[Dmt][dR][Dip][Sar]-NH2): the EC50 was greater than 200 nM.
As for `CCCCCCCCN(CC(N)=O)C(=O)[C@H](Cc1ccccc1)NC(=O)[C@@H](CCCNC(=N)N)NC(=O)[C@@H](N)Cc1c(C)cc(O)cc1C` [compound 27] (H-[Dmt][dR]F[N(octyl)Gly]-NH2), the figure is 50 to 200 nM; as for `CCCC[C@H](NC(=O)[C@H](Cc1ccccc1)NC(=O)[C@@H](CCCN=C(N)N)NC(=O)[C@@H](N)Cc1c(C)cc(O)cc1C)C(N)=O` [compound 28] (H-[Dmt][dR]F[Nle]-NH2), 10 to 50 nM.
As for `Cc1cc(O)cc(C)c1C[C@H](N)C(=O)N[C@H](CCCNC(=N)N)C(=O)N[C@@H](Cc1ccccc1)C(=O)N[C@@H](CC(C)C)C(N)=O` [compound 29] (H-[Dmt][dR]FL-NH2), the figure is 10 to 50 nM; as for `Cc1cc(O)cc(C)c1C[C@H](N)C(=O)N[C@H](CCCNC(=N)N)C(=O)N[C@@H](Cc1ccccc1)C(=O)N[C@H](C(N)=O)C(C)C` [compound 30] (H-[Dmt][dR]FV-NH2), 1 to 10 nM.
Next, `CCCC[C@H](NC(=O)[C@H](Cc1c[nH]c2ccccc12)NC(=O)[C@@H](CCCNC(=N)N)NC(=O)[C@@H](N)Cc1c(C)cc(O)cc1C)C(N)=O` [compound 31] (H-[Dmt][dR]W[Nle]-NH2): 10 to 50 nM; `Cc1cc(O)cc(C)c1C[C@H](N)C(=O)N[C@H](CCCNC(=N)N)C(=O)NCC(=O)N[C@H](C(N)=O)C(c1ccccc1)c1ccccc1` [compound 33] (H-[Dmt][dR]G[Dip]-NH2): greater than 200 nM.
As for `Cc1cc(O)cc(C)c1C[C@H](N)C(=O)N[C@H](CCCNC(=N)N)C(=O)NCC(=O)N[C@@H](Cc1c[nH]c2ccccc12)C(N)=O` [compound 34] (H-[Dmt][dR]GW-NH2), the EC50 was 10 to 50 nM.
`Cc1cc(O)cc(C)c1C[C@H](N)C(=O)N[C@H](CCCNC(=N)N)C(=O)N(C)CC(=O)N[C@@H](Cc1c[nH]c2ccccc12)C(N)=O` [compound 35] (H-[Dmt][dR][Sar]W-NH2): the EC50 was greater than 200 nM.
As for `Cc1cc(O)cc(C)c1C[C@H](N)C(=O)N[C@H](CCCNC(=N)N)C(=O)N[C@@H](Cc1ccccc1)C(=O)N[C@H](C(N)=O)C(c1ccccc1)c1ccccc1` [compound 36] (H-[Dmt][dR]F[Dip]-NH2), the figure is 10 to 50 nM; as for `Cc1cc(O)cc(C)c1C[C@H](N)C(=O)N[C@H](C)C(=O)NCC(=O)N[C@@H](Cc1ccc(F)cc1)C(=O)NCC(N)=O` [compound 38], less than 1 nM; as for `Cc1cc(O)cc(C)c1C[C@H](N)C(=O)N[C@H](C)C(=O)NCC(=O)N[C@@H](Cc1ccc(C#N)cc1)C(=O)NCC(N)=O` [compound 39], less than 1 nM.
Next, `Cc1cc(O)cc(C)c1C[C@H](N)C(=O)N[C@H](C)C(=O)NCC(=O)N1Cc2ccccc2C[C@H]1C(=O)NCC(N)=O` [compound 40]: 10 to 50 nM; `Cc1cc(O)cc(C)c1C[C@H](N)C(=O)N[C@H](C)C(=O)NCC(=O)N[C@@H](Cc1ccc(Cl)c(Cl)c1)C(=O)NCC(N)=O` [compound 41]: less than 1 nM.
As for `Cc1cc(O)cc(C)c1C[C@H](N)C(=O)N[C@H](C)C(=O)NCC(=O)N[C@@H](CCc1ccccc1)C(=O)N(C)CC(N)=O` [compound 47], the figure is 1 to 10 nM.
In turn, `C[C@@H](NC(=O)[C@@H](N)Cc1ccc(O)cc1)C(=O)NCC(=O)N[C@H](CC(=O)N(C)CC(N)=O)Cc1ccccc1` [compound 62] yielded an EC50 of 1 to 10 nM.
Next, `Cc1cc(O)cc(C)c1C[C@H](N)C(=O)N[C@H](C)C(=O)N(C)CC(=O)N[C@H](CC(=O)N(C)CC(N)=O)Cc1ccccc1` [compound 64]: 50 to 200 nM.
Next, `Cc1cc(O)cc(C)c1C[C@H](N)C(=O)N[C@H](C)C(=O)N[C@H](C(=O)N[C@H](CC(=O)N(C)CC(N)=O)Cc1ccccc1)C(C)C` [compound 69] (H-[Dmt][dA]V[β3hF][Sar]-NH2): 50 to 200 nM; `Cc1cc(C(N)=O)cc(C)c1C[C@H](N)C(=O)N[C@H](CC(=O)O)C(=O)NCC(=O)N[C@H](CC(=O)N(C)CC(N)=O)Cc1ccccc1` [compound 77]: less than 1 nM.
In the case of `Cc1cc(C(N)=O)cc(C)c1C[C@H](N)C(=O)N(C)[C@@H](CCCNC(=N)N)C(=O)NCC(=O)N[C@H](CC(=O)N(C)CC(N)=O)Cc1ccccc1` [compound 78], the EC50 fell in the range of 50 to 200 nM.
As for `CC(=O)N[C@@H](Cc1c(C)cc(O)cc1C)C(=O)N[C@H](C)C(=O)NCC(=O)N[C@H](CC(=O)N(C)CC(N)=O)Cc1ccccc1` [compound 86], the figure is 10 to 50 nM; as for `Cc1cc(O)cc(C)c1C[C@H](N)C(=O)N[C@@H](C)C(=O)NCC(=O)N[C@H](CC(=O)N(C)CC(=O)O)Cc1ccccc1` [compound 88], 10 to 50 nM.
